# Data published in patent US10822311B2, “Pyrimidines and variants thereof, and uses therefor” (Afferent Pharmaceuticals Inc., priority 2016, dated 2020).
# Where two headings read alike, the source gives them in different places.
# Assays:
# P2X3 [1] = assay: Mean pIC50s from Carter et al, P2X3; format: cell-based
# P2X3 [2] = settings: Table 3A, oxygen-linked; from Carter et al; cited from earlier work
# P2X3 [3] = assay: Mean pIC50s from Jahangir et al, P2X3; format: cell-based; settings: Table 3B, iodo; ratio from the Jahangir et al pIC50s
# P2X3 [4] = settings: Table 3B, iodo; from Jahangir et al; cited from earlier work
# P2X2/3 = target: T1, P2X2/3 (Homo sapiens, UniProt P56373+Q9UBL9); settings: Table 3B, iodo; from Jahangir et al; cited from earlier work
# T1 sequence (P56373 1-397): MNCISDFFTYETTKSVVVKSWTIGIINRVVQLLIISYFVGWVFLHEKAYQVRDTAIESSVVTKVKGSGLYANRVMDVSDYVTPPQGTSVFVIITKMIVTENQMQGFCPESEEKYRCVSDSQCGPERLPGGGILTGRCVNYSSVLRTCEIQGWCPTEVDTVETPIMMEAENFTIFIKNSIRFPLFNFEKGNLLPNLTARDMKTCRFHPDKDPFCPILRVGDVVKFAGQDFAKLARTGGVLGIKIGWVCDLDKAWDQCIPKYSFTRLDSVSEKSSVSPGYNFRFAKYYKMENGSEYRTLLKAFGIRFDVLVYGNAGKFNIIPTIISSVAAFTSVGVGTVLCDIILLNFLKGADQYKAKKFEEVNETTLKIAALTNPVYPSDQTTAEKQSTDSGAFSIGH
# T1 sequence (Q9UBL9 1-471): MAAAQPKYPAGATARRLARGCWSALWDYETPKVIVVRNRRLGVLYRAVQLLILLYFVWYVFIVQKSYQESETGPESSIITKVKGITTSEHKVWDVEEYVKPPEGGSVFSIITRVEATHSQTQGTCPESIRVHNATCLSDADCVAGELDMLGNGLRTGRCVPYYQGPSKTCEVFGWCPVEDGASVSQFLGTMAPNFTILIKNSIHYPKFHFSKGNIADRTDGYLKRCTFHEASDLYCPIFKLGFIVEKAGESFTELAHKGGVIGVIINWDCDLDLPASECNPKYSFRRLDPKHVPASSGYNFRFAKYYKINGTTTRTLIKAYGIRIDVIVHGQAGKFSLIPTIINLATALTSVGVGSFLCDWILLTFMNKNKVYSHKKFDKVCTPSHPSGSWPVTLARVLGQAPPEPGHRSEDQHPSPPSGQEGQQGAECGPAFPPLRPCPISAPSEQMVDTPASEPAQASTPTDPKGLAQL
# [5] = target: T2, human P2X3 receptor (homomeric P2X3 channels) (Homo sapiens, UniProt P56373); assay: FlexStation calcium fluorescence assay, homomeric P2X3 channels in HEK293 cells; format: cell-based; settings: for IC50: HEK293 cells, hP2X3, agonist 1 μM α,β-meATP, read-out: Average pIC50 P2X3 (converted); for Selectivity P2X3/P2X2/3: Ratio=10^(P2X3pIC50−P2X2/3pIC50)
# T2 construct: expressed in transfected cells; host or cells: HEK293 human embryonic kidney cells (HEK-hP2X3)
# T2 sequence (P56373 1-397): T1 sequence (P56373 1-397)
# Description: (§1) 1321N1 human astrocytoma and HEK293 human embryonic kidney cells were stably transfected with human P2X2 and P2X3 receptor subunits to form heteromeric P2X2/3 channels and passaged in flasks. Additionally, HEK293 cells were stably transfected with human P2X3 receptor subunits to form homomeric P2X3 channels.
# (§2) Approximately 24 hours before the FlexStation calcium fluorescence experiment, cells were released from their flasks, centrifuged and re-suspended in nutrient medium. The cells were aliquoted into black-wall, clear-bottom 96 well plates at a density of 25,000 cells per well and incubated overnight in a humidified, CO2-enriched (5%) atmosphere at 37° C.
# (§3) On the day of the experiment, cells were washed with assay buffer (calcium- and magnesium-free Hank's balanced salt solution, 20 mM HEPES, 2 mM CaCl2; AB) and loaded with 4 μM Fluo-4 (P2X2/3) or Calcium 6 (Molecular Devices, according to manufacturer's instructions; P2X3) calcium-sensitive fluorescent dye in 100 μL AB.
# (§4) After 1 hour of dye loading at 37° C., 1321N1-hP2X2/3 cells were washed two times with AB and test compound or vehicle added to each well in a total volume of 150 μL AB. HEK-hP2X3 cells were not washed because the Calcium 6 dye kit includes an extracellular dye that quenches unabsorbed Calcium 6 dye; test compound or vehicle were added directly to the assay plates to achieve the appropriate concentration of test compound in a total volume of 150 μL AB.
# (§5) After 20 minutes incubation at room temperature and protected from light, the assay plates were loaded into the FlexStation microplate reader and baseline fluorescence measured with an excitation wavelength of 485 nm and emission wavelength readings centered at 525 nm (515 nm cut off).
# (§6) The agonist was dispensed by the FlexStation during fluorescence measurement to construct agonist activation and antagonist inhibition curves. The final agonist concentration for inhibition was 1 μM α,β-meATP for P2X3 and 3 μM ATP for P2X2/3. Peak fluorescence was measured and curves generated using a four parameter nonlinear regression equation.
# [6] = target: T3, human P2X2/3 (heteromeric P2X2/3 channels) (Homo sapiens, UniProt P56373+Q9UBL9); assay: FlexStation calcium fluorescence assay, heteromeric P2X2/3 channels in 1321N1 cells; format: cell-based; settings: highest concentration tested is 10 μM; for IC50: 1321N1 cells, hP2X2/3, agonist 3 μM ATP, read-out: Average pIC50 P2X2/3 (converted); for P2X2/3 mean pIC50, X = S: Table 3A, sulfur-linked, hP2X2/3, 1321N1 (astrocytoma) cells
# T3 construct: expressed in transfected cells; host or cells: 1321N1 human astrocytoma cells (1321N1-hP2X2/3)
# T3 sequence (P56373 1-397): T1 sequence (P56373 1-397)
# T3 sequence (Q9UBL9 1-471): T1 sequence (Q9UBL9 1-471)
# Description: as §1, §2, §3, §4, §5, §6
SMILES,IC50 [5] [µM],IC50 [6] [µM],Selectivity P2X3/P2X2/3 [5],other results
"COc1cc(C(C)C)c(Oc2cnc(N)nc2N)cc1S(C)(=O)=O [Row C, X = O]",–,–,–,"Selectivity, X = O (P2X3 [1]): 10; P2X3 mean pIC50, X = O (P2X3 [2]): 7.0"
"COc1cc(C(C)C)c(Oc2cnc(N)nc2N)cc1I [Row B, X = O]",–,–,–,"Selectivity, X = O (P2X3 [1]): 8; P2X3 mean pIC50, X = O (P2X3 [2]): 8.0"
"COc1cc(Oc2cnc(N)nc2N)c(C(C)C)cc1OC [Row A, X = O]",–,–,–,"P2X3 mean pIC50, X = O (P2X3 [2]): 7.6"
"COc1cc(C(C)C)c(Oc2cnc(N)nc2NCC(O)CO)cc1I (centres unmarked) [Row B, R = I]",–,–,–,"Selectivity, R = I (P2X3 [3]): 4.0; P2X3 mean pIC50, R = I (P2X3 [4]): 8.1; P2X2/3 mean pIC50, R = I (P2X2/3): 7.5"
"COc1cc(C(C)C)c(Oc2cnc(N)nc2NC(CO)CO)cc1I [Row C, R = I]",–,–,–,"Selectivity, R = I (P2X3 [3]): 2.5; P2X3 mean pIC50, R = I (P2X3 [4]): 8.7; P2X2/3 mean pIC50, R = I (P2X2/3): 8.3"
"COc1cc(C(C)C)c(Oc2cnc(N)nc2NCCO)cc1I [Row A, R = I]",–,–,–,"Selectivity, R = I (P2X3 [3]): 1.6; P2X3 mean pIC50, R = I (P2X3 [4]): 8.0; P2X2/3 mean pIC50, R = I (P2X2/3): 7.8"
"COc1cc(C(C)C)c(Oc2cnc(N)nc2N)cc1Cl [Row D, X = O]",–,–,–,"Selectivity, X = O (P2X3 [1]; Table 3A, oxygen-linked, ratio from the Carter et al pIC50s): 4; P2X3 mean pIC50, X = O (P2X3 [2]): 7.6"
COc1cc(C(C)C)c(Sc2cnc(N)nc2N)cc1I [Compound 4],0.126,6.31,–,"Selectivity, X = S ([5]; Table 3A, sulfur-linked, P2X3 vs P2X2/3 potency ratio): 48; P2X2/3 mean pIC50, X = S [6]: 5.2"
COc1cc(Oc2cnc(N)nc2Nc2cnccn2)c(C(C)C)cc1OC [Compound 44],1,> 10,>10,–
COc1cc(C(C)C)c(Sc2cnc(N)nc2N)cc1C#N [Compound 10],> 10,> 10,–,–
COc1cc(C(C)C)c(Sc2cnc(N)nc2N)cc1Cl [Compound 9],0.158,> 10,–,"P2X3 mean pIC50, X = S ([5]; Table 3A, sulfur-linked, hP2X3, HEK293 cells): 6.8; P2X2/3 mean pIC50, X = S [6]: <5"
COc1cc(Oc2cnc(N)nc2NCC(C)C)c(C(C)C)cc1OC [Compound 33],0.631,> 10,>15,–
COCCOCCNc1ncc(Oc2cc(OC)c(OC)cc2C(C)C)c(N)n1 [Compound 24],1.58,> 10,>5.9,–
CCNc1ncc(Oc2cc(OC)c(OC)cc2C(C)C)c(N)n1 [Compound 29],0.398,3.16,9.3,–
COc1cc(Oc2cnc(N)nc2Nc2ccccn2)c(C(C)C)cc1OC [Compound 43],1.58,> 10,>5.6,–
